Some results are limits rather than exact numbers.

This test concerns Secretion of ApoB. The experiment in a line: Quantification of the secretion of ApoB in HepG2 cells. The format is cell-based. The note with it: Homo sapiens, HepG2, 24 h, 24 hours of incubation with test compound, immunoprecipitation of apoB from medium, read-out: pIC50 value (=-log IC50 value), secretion of ApoB (converted). The procedure, abridged:
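At 70% confluency, HepG2 cells in MEM with 10% FCS received compound or DMSO carrier (0.4% final) for 24 h. Secreted apoB in cleared medium immunoprecipitated with sheep anti-apoB then rabbit anti-sheep antibody (24 h each, 8° C); pellet radioactivity counted by liquid scintillation; IC50 expressed as pIC50.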
As to `CCOC(=O)C(c1ccccc1)N1CCC(c2ccc(-n3ccn([C@H](C)c4cccc(C(F)(F)F)c4)c3=O)cc2)CC1` (some centres unmarked) [Compound 276], the IC50 is 31.6 to 316 nM.

On to `CCOC(=O)C(c1ccccc1)N1CCC(c2ccc(-n3ccn([C@H](C)c4ccc(C(F)(F)F)cc4)c3=O)cc2)CC1` (some centres unmarked) [Compound 277], for which the IC50 is 31.6 to 316 nM.

For the molecule `CCOC(=O)C(c1ccccc1)N1CCC(c2ccc(-n3ccn([C@H](C)c4ccccc4F)c3=O)cc2)CC1` (some centres unmarked) [Compound 278], the IC50 is 31.6 to 316 nM.

Regarding `CCOC(=O)C(c1ccccc1)N1CCC(c2ccc(-n3ccn([C@@H](C)c4ccccc4F)c3=O)cc2)CC1` (some centres unmarked) [Compound 279], the IC50 is 316 to 3160 nM.

For the molecule `COC(=O)c1cc(NC(=O)C(c2ccccc2)N2CCN(c3ccc(-n4cnn(C(C)c5ccccc5)c4=O)cc3)CC2)ccc1C` (centres unmarked) [Compound 283], the IC50 was under 31.6 nM.

In the case of `COC(=O)c1cc(NC(=O)C(c2ccccc2)N2CCC(c3ccc(-n4cnn(C(C)c5ccccc5)c4=O)cc3)CC2)ccc1C` (centres unmarked) [Compound 284], the IC50 was under 31.6 nM.

As to `COC(=O)c1ccc(NC(=O)C(c2ccccc2)N2CCC(c3ccc(-n4cnn(C(C)C)c4=O)cc3)CC2)cc1C` (centres unmarked) [Compound 285], the IC50 was under 31.6 nM.

As to `COC(=O)c1ccc(CNC(=O)C(c2ccccc2)N2CCN(c3ccc(-n4ccn(C(C)C)c4=O)c(C)c3)CC2)cc1C` (centres unmarked) [Compound 286], the IC50 is 31.6 to 316 nM.

Regarding `COC(=O)c1ccc(CNC(=O)C(c2ccccc2)N2CCN(c3ccc(-n4cnn(C(C)c5ccccc5)c4=O)cc3)CC2)cc1C` (centres unmarked) [Compound 287], the IC50 was 316 to 3160 nM.

Take `COC(=O)c1ccc(CNC(=O)C(c2ccccc2)N2CCC(c3ccc(-n4cnn(C(C)C)c4=O)cc3)CC2)cc1C` (centres unmarked) [Compound 288]: the IC50 was 31.6 to 316 nM.

As to `COC(=O)c1ccccc1CNC(=O)C(c1ccccc1)N1CCN(c2ccc(-n3ccn(C(C)C)c3=O)c(C)c2)CC1` (centres unmarked) [Compound 289], the IC50 was 31.6 to 316 nM.

Turning to `COC(=O)c1cccc(CNC(=O)C(c2ccccc2)N2CCN(c3ccc(-n4ccn(C(C)C)c4=O)c(C)c3)CC2)c1` (centres unmarked) [Compound 290], the IC50 is 316 to 3160 nM.

As for `COC(=O)c1cccc(CNC(=O)C(c2ccccc2)N2CCN(c3ccc(-n4ccn(C(C)c5ccccc5)c4=O)cc3)CC2)c1` (centres unmarked) [Compound 291], the IC50 is 316 to 3160 nM.

For `COC(=O)c1ccc(CNC(=O)C(c2ccccc2)N2CCN(c3ccc(-n4ccn(C(C)C)c4=O)c(C)c3)CC2)cc1` (centres unmarked) [Compound 293], the IC50 is 316 to 3160 nM.

Regarding `COC(=O)c1ccc(CNC(=O)C(c2ccccc2)N2CCN(c3ccc(-n4cnn(C(C)c5ccccc5)c4=O)cc3)CC2)cc1` (centres unmarked) [Compound 294], the IC50 is 316 to 3160 nM.

Consider `COC(=O)c1ccc(CNC(=O)C(c2ccccc2)N2CCC(c3ccc(-n4cnn(C(C)C)c4=O)cc3)CC2)cc1` (centres unmarked) [Compound 295], for which the IC50 is 31.6 to 316 nM.

Take `CCOC(=O)C(c1ccccc1)N1CCC(c2ccc(-n3ccn([C@H](C)C4CCCCC4)c3=O)cc2)CC1` (some centres unmarked) [Compound 296]: the IC50 was 31.6 to 316 nM.

Regarding `CCOC(=O)C(c1ccccc1)N1CCN(c2ccc(-n3ccn([C@H](C)c4ccccc4)c3=O)c(C)c2)CC1` (some centres unmarked) [Compound 297], the IC50 is 31.6 to 316 nM.

For `CC(C)n1ncn(-c2ccc(N3CCN(C(C(=O)Nc4ccc5c(c4)CCN(C(=O)OC(C)(C)C)C5)c4ccccc4)CC3)cc2)c1=O` (centres unmarked) [Compound 305], the IC50 was 31.6 to 316 nM.

As for `CC(C)n1ncn(-c2ccc(N3CCN(C(C(=O)Nc4ccc5c(c4)CC(NC(=O)OC(C)(C)C)C5)c4ccccc4)CC3)cc2)c1=O` (centres unmarked) [Compound 306], the IC50 is under 31.6 nM.

For `COC(=O)C(c1ccc(C)cc1)N1CCN(c2ccc(-n3cnn(C(C)c4ccccc4)c3=O)cc2)CC1` (centres unmarked) [Compound 318], the half-maximal inhibitory concentration (IC50) is 316 to 3160 nM.

On to `COC(=O)C(c1ccccc1Cl)N1CCC(c2ccc(-n3cnn(C(C)C)c3=O)cc2)CC1` (centres unmarked) [Compound 319], for which the IC50 is 31.6 to 316 nM.

With `COC(=O)C(c1cccc(Cl)c1)N1CCC(c2ccc(-n3cnn(C(C)C)c3=O)cc2)CC1` (centres unmarked) [Compound 320], the IC50 was 316 to 3160 nM.

Take `COC(=O)C(c1ccc(Cl)cc1)N1CCC(c2ccc(-n3cnn(C(C)C)c3=O)cc2)CC1` (centres unmarked) [Compound 321]: the IC50 was 316 to 3160 nM.

For the molecule `COC(=O)C(c1ccc(Cl)cc1Cl)N1CCC(c2ccc(-n3cnn(C(C)C)c3=O)cc2)CC1` (centres unmarked) [Compound 322], the IC50 was 31.6 to 316 nM.

For `COC(=O)C(c1ccc(Br)cc1)N1CCC(c2ccc(-n3cnn(C(C)C)c3=O)cc2)CC1` (centres unmarked) [Compound 323], the IC50 is 316 to 3160 nM.

For the molecule `COC(=O)C(c1ccc(C)cc1)N1CCC(c2ccc(-n3cnn(C(C)C)c3=O)cc2)CC1` (centres unmarked) [Compound 324], the IC50 is 316 to 3160 nM.

Take `COC(=O)C(c1ccccc1Cl)N1CCN(c2ccc(-n3cnn(C(C)C)c3=O)cc2)CC1` (centres unmarked) [Compound 325]: the IC50 is 31.6 to 316 nM.

Take `COC(=O)C(c1cccc(Cl)c1)N1CCN(c2ccc(-n3cnn(C(C)C)c3=O)cc2)CC1` (centres unmarked) [Compound 326]: the IC50 was 316 to 3160 nM.

Consider `COC(=O)C(c1ccc(Cl)cc1)N1CCN(c2ccc(-n3cnn(C(C)C)c3=O)cc2)CC1` (centres unmarked) [Compound 327], for which the IC50 is 316 to 3160 nM.

For the molecule `COC(=O)C(c1ccc(Cl)cc1Cl)N1CCN(c2ccc(-n3cnn(C(C)C)c3=O)cc2)CC1` (centres unmarked) [Compound 328], the IC50 was 31.6 to 316 nM.

With `COC(=O)C(c1ccc(Br)cc1)N1CCN(c2ccc(-n3cnn(C(C)C)c3=O)cc2)CC1` (centres unmarked) [Compound 329], the IC50 was 316 to 3160 nM.

As to `COC(=O)C(c1ccc(C)cc1)N1CCN(c2ccc(-n3cnn(C(C)C)c3=O)cc2)CC1` (centres unmarked) [Compound 330], the IC50 was 316 to 3160 nM.

Take `CCOC(=O)C(c1ccccc1)N1CCN(c2ccc(-n3ccn(C(C)c4cccc(F)c4F)c3=O)cc2)CC1` (centres unmarked) [Compound 332]: the IC50 was 31.6 to 316 nM.

In the case of `CCOC(=O)C(c1ccccc1)N1CCN(c2ccc(-n3ccn(C(C)c4cc(F)ccc4F)c3=O)cc2)CC1` (centres unmarked) [Compound 334], the IC50 was 31.6 to 316 nM.

Consider `CCOC(=O)C(c1ccccc1)N1CCN(c2ccc(-n3nc4cccc(C)n4c3=O)cc2)CC1` (centres unmarked) [Compound 347], for which the IC50 is 316 to 3160 nM.

On to `CCOC(=O)c1cc(NC(=O)C(c2ccccc2)N2CCC(c3ccc(-n4cnn(C(C)C)c4=O)cc3)CC2)ccc1C` (centres unmarked) [Compound 349], for which the IC50 is under 31.6 nM.

In the case of `CCOC(=O)C(c1ccccc1)N1CCN(c2ccc(-n3cnn(C(C)c4ccccc4F)c3=O)cc2)CC1` (centres unmarked) [Compound 350], the IC50 was 31.6 to 316 nM.

For `CCOC(=O)CC(NC(=O)C(c1ccccc1)N1CCC(c2ccc(-n3cnn(C(C)C)c3=O)cc2)CC1)c1ccc2c(c1)OCO2` (centres unmarked) [Compound 351], the IC50 is 316 to 3160 nM.

Consider `COC(=O)CCc1csc(NC(=O)C(c2ccccc2)N2CCC(c3ccc(-n4cnn(C(C)C)c4=O)cc3)CC2)n1` (centres unmarked) [Compound 352], for which the IC50 is 316 to 3160 nM.

`COC(=O)c1[nH]c2ccc(C)cc2c1NC(=O)C(c1ccccc1)N1CCC(c2ccc(-n3cnn(C(C)C)c3=O)cc2)CC1` (centres unmarked) [Compound 353]: the IC50 was 31.6 to 316 nM.

As for `COC(=O)c1ccc2nc(NC(=O)C(c3ccccc3)N3CCC(c4ccc(-n5cnn(C(C)C)c5=O)cc4)CC3)sc2c1` (centres unmarked) [Compound 354], the IC50 was 316 to 3160 nM.

`CCOC(=O)c1csc(NC(=O)C(c2ccccc2)N2CCN(c3ccc(-n4cnn(C(C)C)c4=O)cc3)CC2)n1` (centres unmarked) [Compound 357]: the IC50 was 316 to 3160 nM.

On to `CCOC(=O)CC(NC(=O)C(c1ccccc1)N1CCN(c2ccc(-n3ccn(C(C)C)c3=O)cc2)CC1)c1ccc2c(c1)OCO2` (centres unmarked) [Compound 358], for which the IC50 was 316 to 3160 nM.
